In US10464911B2, “1,3,4-oxadiazole sulfamide derivative compounds as histone deacetylase 6 inhibitor, and the pharmaceutical composition comprising the same” (Chong Kun Dang Pharmaceutical Corp., priority 2015, dated 2019):

Tests used:
[1] = target: human recombinant HDAC1 (Homo sapiens (Human), UniProt Q13547); test: HDAC1 enzyme activity inhibition assay (HDAC Fluorimetric Drug Discovery Kit); assay type: biochemical; settings: human recombinant HDAC1, Fluor de Lys substrate 10 μM, 60 minutes
Procedure: In order to examine the HDAC6 selectivity of the compounds of formula I of the present invention by HDAC1 and HDAC6 enzymatic activity inhibition assays, an experiment was performed using a conventional substance as a control.
HDAC enzyme activity was measured using a HDAC Fluorimetric Drug Discovery Kit (BML-AK511, 516, Enzo Life Science). For the HDAC1 enzyme activity test, human recombinant HDAC1 (BML-SE456) was used as an enzyme source, and Fluor de Lys®-“SIRT1 (BNL-KI177) was used as a substrate. A 5-fold dilution of the compound was seeded into a 96-well plate, and then 0.3 μg of the enzyme and 10 μM of the substrate were added to each well of the plate and allowed to react at 30 for 60 minutes. Then, Fluor de Lys®-Developer II (BML-KI176) was added thereto and allowed to react for 30 minutes, after which the fluorescence value (Ex 360, Em 460) was measured using a multi-plate reader (Flexstation 3, Molecular Device). The HDAC6 enzyme was tested using human recombinant HDAC6 (382180) (Calbiochem) according to the same protocol as the HDAC1 enzyme activity test method. Based on the resulting values, each IC50 value was calculated using GraphPad Prism4.0 program.

[2] = target: human recombinant HDAC6 (Homo sapiens (Human), UniProt Q9UBN7); test: HDAC6 enzyme activity inhibition assay (HDAC Fluorimetric Drug Discovery Kit); assay type: biochemical; settings: for HDAC6 selectivity (fold): HDAC6 versus HDAC1; for IC50: human recombinant HDAC6, same protocol as HDAC1 test
Procedure, shortened: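 Recombinant human HDAC1 or HDAC6 (0.3 μg) reacted with 10 μM Fluor de Lys-SIRT1 substrate and 5-fold compound dilutions for 60 min at 30 °C, followed by 30 min developer. Fluorescence read at Ex 360/Em 460; IC50 calculated from the values.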

Chain of human recombinant HDAC6 (Q9UBN7 whole entry): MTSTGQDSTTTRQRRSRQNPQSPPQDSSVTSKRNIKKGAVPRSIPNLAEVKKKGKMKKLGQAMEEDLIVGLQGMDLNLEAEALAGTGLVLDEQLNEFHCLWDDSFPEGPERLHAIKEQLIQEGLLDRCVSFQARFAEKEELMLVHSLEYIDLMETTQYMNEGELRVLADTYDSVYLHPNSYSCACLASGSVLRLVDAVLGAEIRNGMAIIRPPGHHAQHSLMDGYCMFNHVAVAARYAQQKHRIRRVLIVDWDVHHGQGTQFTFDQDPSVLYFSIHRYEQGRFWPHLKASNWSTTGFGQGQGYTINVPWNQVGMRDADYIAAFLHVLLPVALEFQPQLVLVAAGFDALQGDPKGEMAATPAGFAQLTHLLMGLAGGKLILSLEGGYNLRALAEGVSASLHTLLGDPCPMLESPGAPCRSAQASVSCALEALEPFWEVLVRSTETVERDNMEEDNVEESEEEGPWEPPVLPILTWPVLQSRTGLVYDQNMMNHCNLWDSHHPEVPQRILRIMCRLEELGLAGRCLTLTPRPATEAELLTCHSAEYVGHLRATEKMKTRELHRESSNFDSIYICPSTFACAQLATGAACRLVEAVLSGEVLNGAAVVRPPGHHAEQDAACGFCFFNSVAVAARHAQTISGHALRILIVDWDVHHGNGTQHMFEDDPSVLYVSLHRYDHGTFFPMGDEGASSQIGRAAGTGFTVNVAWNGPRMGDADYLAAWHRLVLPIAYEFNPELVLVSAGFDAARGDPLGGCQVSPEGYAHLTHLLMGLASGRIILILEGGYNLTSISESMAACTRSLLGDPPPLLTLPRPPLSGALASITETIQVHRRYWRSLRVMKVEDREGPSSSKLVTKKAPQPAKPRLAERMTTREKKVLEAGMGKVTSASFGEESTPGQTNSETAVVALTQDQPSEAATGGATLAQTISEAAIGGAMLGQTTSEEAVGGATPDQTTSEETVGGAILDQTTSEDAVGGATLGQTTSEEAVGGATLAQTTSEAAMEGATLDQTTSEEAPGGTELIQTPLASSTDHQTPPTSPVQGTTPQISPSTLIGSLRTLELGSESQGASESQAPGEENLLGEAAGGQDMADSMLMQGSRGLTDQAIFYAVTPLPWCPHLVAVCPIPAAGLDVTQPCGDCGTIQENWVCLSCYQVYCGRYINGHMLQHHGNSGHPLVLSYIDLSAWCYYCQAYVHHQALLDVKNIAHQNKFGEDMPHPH
Chain of human recombinant HDAC1 (Q13547 whole entry): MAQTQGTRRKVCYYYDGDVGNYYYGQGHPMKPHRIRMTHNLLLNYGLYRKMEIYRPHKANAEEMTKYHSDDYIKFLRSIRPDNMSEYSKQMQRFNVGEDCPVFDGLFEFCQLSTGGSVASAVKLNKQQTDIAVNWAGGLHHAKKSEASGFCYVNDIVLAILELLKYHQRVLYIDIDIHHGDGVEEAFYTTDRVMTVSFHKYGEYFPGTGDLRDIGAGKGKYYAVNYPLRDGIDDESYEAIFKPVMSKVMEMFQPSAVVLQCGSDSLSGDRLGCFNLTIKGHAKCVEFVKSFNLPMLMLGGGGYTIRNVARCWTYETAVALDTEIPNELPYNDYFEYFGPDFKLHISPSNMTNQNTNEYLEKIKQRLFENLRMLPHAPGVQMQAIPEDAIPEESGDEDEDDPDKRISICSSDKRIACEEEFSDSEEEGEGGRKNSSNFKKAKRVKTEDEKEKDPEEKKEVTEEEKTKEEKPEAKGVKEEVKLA

Compound | IC50 [1] [µM] | HDAC6 selectivity (fold) [2] [fold] | IC50 [2] [µM]
CN1CCN(S(=O)(=O)N(Cc2ccc(-c3nnc(C(F)F)o3)cc2)c2ccc(F)c(Cl)c2)CC1 [Compound 11654, N-(3-chloro-4-fluorophenyl)-N-(4-(5-(difluoromethyl)-1,3,4-oxadiazol-2-yl)benzyl)-4-methylpiperazine-1-sulfonamide] | 71.5 | 1996 | 0.036
CC(=O)N1[C@H](C)CN(S(=O)(=O)N(Cc2ccc(-c3nnc(C(F)F)o3)cn2)c2ccccc2)C[C@@H]1C [Compound 11659, (3S,5R)-4-acetyl-N-((5-(5-(difluoromethyl)-1,3,4-oxadiazol-2-yl)pyridin-2-yl)methyl)-3,5-dimethyl-N-phenylpiperazine-1-sulfonamide] | 72.4 | 2753 | 0.026
CC(=O)N1[C@H](C)CN(S(=O)(=O)N(Cc2ccc(-c3nnc(C(F)F)o3)cc2)c2cccnc2)C[C@@H]1C [Compound 11660, (3S,5R)-4-acetyl-N-(4-(5-(difluoromethyl)-1,3,4-oxadiazol-2-yl)benzyl)-3,5-dimethyl-N-(pyridin-3-yl)piperazine-1-sulfonamide] | 76.5 | 1206 | 0.063
CCN1[C@H](C)CN(S(=O)(=O)N(Cc2ccc(-c3nnc(C(F)F)o3)cn2)c2ccccc2)C[C@@H]1C [Compound 11661, (3S,5R)—N-((5-(5-(difluoromethyl)-1,3,4-oxadiazol-2-yl)pyridin-2-yl)methyl)-4-ethyl-3,5-dimethyl-N-phenylpiperazine-1-sulfonamide] | 116 | 1886 | 0.061

These reach a lower IC50 [1]. Values come first.

IC50 [1] [µM] | HDAC6 selectivity (fold) [2] [fold] | IC50 [2] [µM] | Compound
55.3 | 1182 | 0.047 | C[C@@H]1CN(S(=O)(=O)N(Cc2ccc(-c3nnc(C(F)F)o3)cc2)c2cccnc2)C[C@H](C)N1C [Compound 11662, (3S,5R)—N-(4-(5-(difluoromethyl)-1,3,4-oxadiazol-2-yl)benzyl)-3,4,5-trimethyl-N-(pyridin-3-yl)piperazine-1-sulfonamide]
52.4 | 1214 | 0.043 | O=S(=O)(N1CCN(C2COC2)CC1)N(Cc1ccc(-c2nnc(C(F)F)o2)cc1)c1ccc(F)c(Cl)c1 [Compound 11653, N-(3-chloro-4-fluorophenyl)-N-(4-(5-(difluoromethyl)-1,3,4-oxadiazol-2-yl)benzyl)-4-(oxetan-3-yl)piperazine-1-sulfonamide]
50.2 | 542 | 0.093 | CN1CCN(CCN(C)S(=O)(=O)N(Cc2ccc(-c3nnc(C(F)F)o3)cc2)c2ccccc2)CC1 [Compound 11702, 2-((4-(((N-methyl-N-(2-(4-methylpiperazin-1-yl)ethyl)sulfamoyl)(phenyl)amino)methyl))phenyl)-5-(difluoromethyl)-1,3,4-oxadiazole]
